# Laboratory results taken from patent US20230331785A1 (priority 2018, published 2023).
# Legend:
# Settings in all cases: human
# [1] = system: HER2 positive NCI/ADR-RES cells (NCI/ADR-RES-HER2+)
# [2] = system: HER2 positive JIMT-1 cells
# HCC1569 cells = system: HCC1569 cells
# [3] = system: HER2 positive HCC1954 cells
# NCI-N87 cells = system: NCI-N87 cells
compound,measurement,setting,value
CS(=O)(=O)CCNCc1ccc(-c2ccc3ncnc(Nc4ccc(OCc5cccc(F)c5)c(Cl)c4)c3c2)o1 [lapatinib],"In Vitro Cytotoxicity CD50, NCI/ADR-RES-HER2+",[1],"2,704 nM"
same,"In Vitro Cytotoxicity CD50, JIMT-1",[2],"5,650 nM"
same,"In Vitro Cytotoxicity CD50, HCC1569",HCC1569 cells,885 nM
same,"In Vitro Cytotoxicity CD50, HCC1954",[3],786 nM
same,"In Vitro Cytotoxicity CD50, NCI-N87",NCI-N87 cells,112 nM
